Converted amounts (≈) assume the structure as drawn.
Experiment: aqueous solubility in 0.1 M sodium phosphate buffer (pH 7.4)
Format: physicochemical
Excerpt: The present invention provides several polymorph crystalline forms and an amorphous form of the compound of Formula I. Each crystalline or amorphous form of the compound can be characterized by one or more of the following: X-ray powder diffraction pattern (i.e., X-ray diffraction peaks at various diffraction angles (2θ), melting point onset (and onset of dehydration for hydrated forms) as illustrated by endotherms of a Differential Scanning Calorimetry (DSC) thermogram, aqueous solubility, light stability under International Conference on Harmonization (ICH) high intensity light conditions, and physical and chemical storage stability.

SMILES | aqueous solubility [µg/mL]
Cc1cc(C)nc(/C=C/c2n[nH]c3cc(Nc4ccccc4C(=O)NCC#CCO)ccc23)c1 [Form II, 2-{3-[(E)-2-(4,6-dimethyl-pyridin-2-yl)-vinyl]-1H-indazol-6-ylamino}-N-(4-hydroxy-but-2-ynyl)-benzamide] | 1.3 (≈ 2.88 µM)
Cc1cc(C)nc(/C=C/c2n[nH]c3cc(Nc4ccccc4C(=O)NCC#CCO)ccc23)c1 [Form III, 2-{3-[(E)-2-(4,6-dimethyl-pyridin-2-yl)-vinyl]-1H-indazol-6-ylamino}-N-(4-hydroxy-but-2-ynyl)-benzamide] | 3.2 (≈ 7.09 µM)
Cc1cc(C)nc(/C=C/c2n[nH]c3cc(Nc4ccccc4C(=O)NCC#CCO)ccc23)c1 [Form IV, 2-{3-[(E)-2-(4,6-dimethyl-pyridin-2-yl)-vinyl]-1H-indazol-6-ylamino}-N-(4-hydroxy-but-2-ynyl)-benzamide] | 1.3 (≈ 2.88 µM)
Cc1cc(C)nc(/C=C/c2n[nH]c3cc(Nc4ccccc4C(=O)NCC#CCO)ccc23)c1 [Form Ia, 2-{3-[(E)-2-(4,6-dimethyl-pyridin-2-yl)-vinyl]-1H-indazol-6-ylamino}-N-(4-hydroxy-but-2-ynyl)-benzamide] | 0.8 (≈ 1.77 µM)
